Assay results published in patent US6737383B1, “Herbicidal oxadiazolidines” (priority 1999, dated 2004).

Experiments:
giant foxtail = test: Test B pre/postemergence giant foxtail; format: in vivo, Setaria faberii
In short: (§1)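 Herbicidal effect was estimated by eye on a ten-point control scale after plants spent twelve to sixteen days in a greenhouse following soil or foliar treatment. Foliar sprays targeted plants at one to four leaves; all doses were formulated in a non-phytotoxic solvent with surfactant.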

cocklebur = test: Test B pre/postemergence cocklebur; format: in vivo, Xanthium strumarium
In short: as §1

rape = test: Test B pre/postemergence rape; format: in vivo, Brassica napus
In short: as §1

bamyardgrass = test: Test B flood test barnyardgrass; format: in vivo, Echinochloa crus-galli
In short: (§2)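 Plants were grown to the 2-leaf stage before treatment with test chemical, then held in a greenhouse for twelve to sixteen days. Injury was visually rated against untreated controls on a 0–10 scale, where 0 is no effect and 10 is complete control.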

crabgrass = test: Test B pre/postemergence crabgrass; format: in vivo, Digitaria sanguinalis
In short: as §1

blackgrass = test: Test B pre/postemergence blackgrass; format: in vivo, Alopecurus myosuroides
In short: as §1

bedstraw = test: Test B pre/postemergence bedstraw; format: in vivo, Galium aparine
In short: as §1

velvetleaf = test: Test B pre/postemergence velvetleaf; format: in vivo, Abutilon theophrasti
In short: as §1

rice = test: Test B flood test rice; format: in vivo, Oryza sativa
In short: as §2

morningglory = test: Test B pre/postemergence morningglory; format: in vivo, Ipomoea hederacea
In short: as §1

smallflower flatsedge = test: Test B flood test smallflower flatsedge; format: in vivo, Cyperus difformis
In short: as §2

corn = test: Test B pre/postemergence corn; format: in vivo, Zea mays
In short: as §1

sugar beet = test: Test B pre/postemergence sugar beet; format: in vivo, Beta vulgaris
In short: as §1

surinam grass = test: Test B pre/postemergence surinam grass; format: in vivo, Brachiaria decumbens
In short: as §1

pigweed = test: Test B pre/postemergence pigweed; format: in vivo, Amaranthus retroflexus
In short: as §1

wild oat = test: Test B pre/postemergence wild oat; format: in vivo, Avena fatua
In short: as §1

[1] = Postemergence, Rate 125 g/ha, scale of 0 to 10 where 0 is no effect and 10 is complete control
[2] = Preemergence, Rate 62 g/ha, scale 0 to 10 (0 no effect, 10 complete control)
[3] = Preemergence, Rate 125 g/ha, 0 is no effect, 10 is complete control
[4] = Preemergence, Rate 250 g/ha, scale 0 to 10, 0 is no effect, 10 is complete control
[5] = Preemergence, Rate 500 g/ha, scale 0 to 10 (0 no effect, 10 complete control)
[6] = Rate 62 g/ha, Postemergence, scale of 0 to 10 where 0 is no effect and 10 is complete control
[7] = Rate 250 g/ha, Postemergence, scale 0 to 10, 0 is no effect, 10 is complete control
[8] = Rate 500 g/ha, Postemergence, scale 0 to 10
[9] = Rate 62 g/ha, headed Pre-emergence (flood test species), scale 0 to 10 (0 no effect, 10 complete control)
[10] = Rate 125 g/ha, Pre-emergence, flood test species, scale 0 to 10 where 0 is no effect and 10 is complete control
[11] = Rate 250 g/ha, headed Pre-emergence (flood test species), scale 0 to 10 (0 no effect, 10 complete control)
[12] = Rate 500 g/ha, headed Pre-emergence (flood test species), scale 0 to 10 (0 no effect, 10 complete control)

CC(C)N(C(=O)n1oc(=O)n(C(C)(C)C)c1=O)c1ccccc1 [Compound 129]
4: Giant foxtail plant response rating (giant foxtail; [6]) | Crabgrass plant response rating (crabgrass; [1]) | Blackgrass plant response rating (blackgrass; [5]) | Velvetleaf plant response rating (velvetleaf; [4]) | Morningglory plant response rating (morningglory; [1]) | Morningglory plant response rating (morningglory; [6]) | Corn plant response rating (corn; [5]) | Corn plant response rating (corn; [8]) | Plant response rating, B. signalgrass (surinam grass; [7])
5: S. Flatsedge plant response rating (smallflower flatsedge; [10]) | Sugarbeets plant response rating (sugar beet; [5]) | Wild oats plant response rating (0 to 10 scale) (wild oat; [3])
3: Barnyardgrass plant response rating (bamyardgrass; [10]) | Plant response rating, Blackgrass (blackgrass; [7]) | Blackgrass plant response rating (blackgrass; [8]) | Plant response rating, Bedstraw (bedstraw; [7]) | Bedstraw plant response rating (bedstraw; Rate 500 g/ha, Postemergence, scale 0 to 10, 0 no effect, 10 complete control) | S. Flatsedge plant response rating (smallflower flatsedge; [9]) | Sugarbeets plant response rating (0 to 10 scale) (sugar beet; [3]) | Sugarbeets plant response rating (sugar beet; [4]) | Redroot pigweed plant response rating (pigweed; [8]) | Wild oats plant response rating (wild oat; [2])
9: Giant foxtail plant response rating (giant foxtail; [5]) | Plant response rating, Giant foxtail (giant foxtail; [7]) | Giant foxtail plant response rating (giant foxtail; [8]) | Barnyardgrass plant response rating (bamyardgrass; [11]) | Plant response rating, Barnyardgrass (bamyardgrass; [12]) | Crabgrass plant response rating (crabgrass; [5]) | Crabgrass plant response rating (crabgrass; [8]) | S. Flatsedge plant response rating (smallflower flatsedge; [11]) | Plant response rating, S. Flatsedge (smallflower flatsedge; [12])
2: Crabgrass plant response rating (crabgrass; [6]) | Blackgrass plant response rating (blackgrass; [4]) | Corn plant response rating (corn; [4]) | Plant response rating, Corn (corn; [7]) | Sugarbeets plant response rating (sugar beet; [2]) | B. signalgrass plant response rating (0 to 10 scale) (surinam grass; [3]) | Redroot pigweed plant response rating (0 to 10 scale) (pigweed; [3]) | Redroot pigweed plant response rating (pigweed; [4]) | Plant response rating, Redroot pigweed (pigweed; [7]) | Plant response rating, Wild oats (wild oat; [7]) | Wild oats plant response rating (wild oat; [8])
7: Giant foxtail plant response rating (giant foxtail; [2]) | Giant foxtail plant response rating (0 to 10 scale) (giant foxtail; [3]) | Barnyardgrass plant response rating (bamyardgrass; [9]) | Crabgrass plant response rating (0 to 10 scale) (crabgrass; [3]) | Crabgrass plant response rating (crabgrass; [4]) | B. signalgrass plant response rating (surinam grass; [5]) | Redroot pigweed plant response rating (pigweed; [5])
8: Giant foxtail plant response rating (giant foxtail; [4]) | Plant response rating, Crabgrass (crabgrass; [7]) | Rice plant response rating (rice; [11]) | Plant response rating, Morningglory (morningglory; [7]) | Morningglory plant response rating (morningglory; [8])
0: Cocklebur plant response rating (cocklebur; [1]) | Cocklebur plant response rating (cocklebur; [2]) | Cocklebur plant response rating (0 to 10 scale) (cocklebur; [3]) | Cocklebur plant response rating (cocklebur; [4]) | Cocklebur plant response rating (cocklebur; [6]) | Plant response rating, Cocklebur (cocklebur; [7]) | Cocklebur plant response rating (cocklebur; [8]) | Rape plant response rating (rape; [1]) | Rape plant response rating (rape; [2]) | Rape plant response rating (0 to 10 scale) (rape; [3]) | Rape plant response rating (rape; [4]) | Rape plant response rating (rape; [5]) | Rape plant response rating (rape; [6]) | Plant response rating, Rape (rape; [7]) | Rape plant response rating (rape; [8]) | Blackgrass plant response rating (blackgrass; [1]) | Blackgrass plant response rating (blackgrass; [2]) | Blackgrass plant response rating (0 to 10 scale) (blackgrass; [3]) | Blackgrass plant response rating (blackgrass; [6]) | Bedstraw plant response rating (bedstraw; [1]) | Bedstraw plant response rating (bedstraw; [2]) | Bedstraw plant response rating (0 to 10 scale) (bedstraw; [3]) | Bedstraw plant response rating (bedstraw; [4]) | Bedstraw plant response rating (bedstraw; [5]) | Bedstraw plant response rating (bedstraw; [6]) | Velvetleaf plant response rating (velvetleaf; [1]) | Velvetleaf plant response rating (velvetleaf; [2]) | Velvetleaf plant response rating (0 to 10 scale) (velvetleaf; [3]) | Velvetleaf plant response rating (velvetleaf; [6]) | Plant response rating, Velvetleaf (velvetleaf; [7]) | Velvetleaf plant response rating (velvetleaf; [8]) | Rice plant response rating (rice; [9]) | Rice plant response rating (rice; [10]) | Morningglory plant response rating (morningglory; [2]) | Morningglory plant response rating (0 to 10 scale) (morningglory; [3]) | Morningglory plant response rating (morningglory; [4]) | Morningglory plant response rating (morningglory; [5]) | Corn plant response rating (corn; [1]) | Corn plant response rating (corn; [2]) | Corn plant response rating (0 to 10 scale) (corn; [3]) | Corn plant response rating (corn; [6]) | Sugarbeets plant response rating (sugar beet; [1]) | Sugarbeets plant response rating (sugar beet; [6]) | Plant response rating, Sugarbeets (sugar beet; [7]) | Sugarbeets plant response rating (sugar beet; [8]) | B. signalgrass plant response rating (surinam grass; [1]) | B. signalgrass plant response rating (surinam grass; [2]) | B. signalgrass plant response rating (surinam grass; [6]) | Redroot pigweed plant response rating (pigweed; [1]) | Redroot pigweed plant response rating (pigweed; [2]) | Redroot pigweed plant response rating (pigweed; [6]) | Wild oats plant response rating (wild oat; [1]) | Wild oats plant response rating (wild oat; [6])
6: Giant foxtail plant response rating (giant foxtail; [1]) | Crabgrass plant response rating (crabgrass; [2]) | Velvetleaf plant response rating (velvetleaf; [5]) | Plant response rating, Rice (rice; [12]) | B. signalgrass plant response rating (surinam grass; Rate 500 g/ha, Postemergence, scale of 0 to 10 where 0 is no effect and 10 is complete control) | Wild oats plant response rating (wild oat; [4]) | Wild oats plant response rating (wild oat; [5])
